# Results from patent EP1488698A1, “Compositions for descreasing intracellular inositol trisphosphate concentration and uses thereof” (priority 1995, dated 1997).
# Marks after values point to notes of the source that are not given here.
# Key:
# [1] = system: primary chick cortical neurons; test: Phosphoinositide hydrolysis assay (InsP3 production) in cultured primary cortical neurons; assay type: cell-based; conditions: for fold induction at 100 µM: Gallus gallus, Cortical neurone, 20 min, read-out: Ins-P-n
# Method: The neurons were seeded in 24-well plastic tissue culture plates that had been coated with L-polylysine.
# Receptor-stimulated and basal unstimulated hydrolysis of phosphoinositides was measured by the following procedure. […] The cells were then washed twice with 1 ml Dulbecco's phosphate-buffered saline (PBS) and 0.5 ml of PBS containing 4.5 g/L glucose was added. Sphingosine, psychosine, lysosulphatide, or lysosphingomyelin, prepared as the hydrochloride salt dissolved in water, were then added to produce the desired extracellular concentration in specific wells, […] The cells were then washed twice with 1 ml PBS, and pre-incubated for 15 minutes at 37°C with 0.5 ml PBS containing 10 mM LiCl and the compound to be tested was added. […] The tubes were vortexed thoroughly, then centrifuged at 500 x g for 5 minutes to separate the aqueous and chloroform phases. For each sample, a 1.5-ml aliquot of the upper (aqueous) phase was applied to a small column containing BioRad AG1X8 resin (formate form). Free [^3H]inositol and [^3H]glycerophosphoinositol were washed through the column with 5 ml of a solution containing 5 mM sodium borate and 60 mM sodium formate. The total phosphorylated [^3H] inositol fraction was eluted from the column for radiometric scintillation spectrometry analysis with 3 ml 1.0 M ammonium formate/0.1 M formic acid.
# In addition, a 0.5 ml aliquot of the lower (chloroform) phase of each sample was analyzed radiometrically by scintillation spectrometry in order to determine the quantity of lipid-bound [^3H]myo-inositol. Estimation of phosphoinositide hydrolysis by phospholipase C is based upon the quantity of [^3H]inositol phosphates produced, and is expressed as the percentage of the latter relative to total free and componential [^3H]inositol (dpm ammonium formate + dpm chloroform fractions).
# [2] = system: cultured neurons; test: Lysosphingolipid content of cultured neurons by NBDZF fluorescence tagging; assay type: cell-based, chick
# From the text: Agonist-binding to metabotropic receptors influences the levels of lysosphingolipid in neuronal membranes. However, there is no convenient methodology available for the measurement of lysosphingolipid content in cultured neurons. As a result, a sensitive method of fluorometric tracing has been devised and is described herein. The measurement of lysosphingolipid content in cultured neurons is based on the stable fluorescence-tagging procedure using 4-fluoro, 7-nitrobenzofuran (NBDZF) described by Nozowa et al J. Neutochem. 59:607-609, 1992). The procedure was applied to: resting neurons; neurons exposed to 100 µM metabotropic receptor agonist for 1 hour; resting neurons exogenously enriched in lysosphingolipids; and neurons exogenously enriched in lysosphingolipids and exposed to metabotropic receptor agonist for 1 hour. The neurons were scraped in batches of 10^7 (1 Petri dish, approximately 8 cm in diameter, is equivalent to 2 mg membrane protein) and subjected to anaylsis.
# Total lipids were removed from the neuron samples by repeated extraction with chloroform:methanol (2:1, vol:vol). The lysosphingolipids were separated from total neuronal lipid in 90 ± 5 % recovery yield (n = 10) by the stepped chromatographic procedure of Van Veldhoven et al. (Anal. Biochem. 183:177-189, 1989). The recovered lysosphingolipids were stably tagged with NBDZF by the rapid procedure of Nozowa et al. (supra). The fluorescence tagged neuronal lysosphingolipids were separated in parallel with reference standards NBDZF-Sph, NBDZF-Psy, and NBDZF-Lsm on high performance silica gel thin layer chromatography plates with acetonitrile:H2O (10:0.5, vol:vol). The highly fluorescent, well separated bands were scraped from the plate. The fluorescence tagged lysosphingolipids are eluted from the scraped silica gel with methanol:1 N HCl (1:0.02, vol:vol). The fluorescence tagged lysosphingolipid eluates were quantitated against reference standards by fluorescence measurement in a Perkin-Elmer LS-5 Fluorescence Spectrometer.
# Sphingolipid content of neurons exposed to sphingosine, lysocerebroside, and lysosphingomyelin was examined as follows. A Petri dish containing approximately 10^7 neurons was incubated with 5 µCi [^3H]myo-Ins in 3 ml DMEM overnight to prelabel the phosphoinositide InsP3 may contain. The neurons were washed with PBS and 3 ml of PBS containing 4.5 g/l glucose was added. Preparations of sphingosine, lysocerebroside, lysosphingomyelin (Sigma Chemical Co., St. Louis, MO) and combinations of each were prepared as the hydrochloride salt dissolved in PBS. The lysosphingolipids were added to the Petri dishes to produce a concentration ranging from 0 - 150 µM. The dishes were held at room temperature for 0.5, 1, or 2 hours, then washed with PBS and incubated with 5 Units of trypsin in glucose/PBS for […] at 37°C. Trypsinization removes non-specifically bound lysosphingolipids that may adhere to extracellular plasma membrane protein domains. Non-specific adherence between cationic micelles of lysosphingolipids and the neuronal glycocalyx is avoided by performing the experiments with lysosphingolipid concentrations below the critical micelle concentration. Neurons were analyzed for lysosphingolipid content as described above.
# [3] = system: cortical neurons; test: Calcium ion signalling (fura 2) in intact cortical neurons; assay type: cell-based, chick
# Method: Metabotropic receptor function was examined in intact neurons by assaying lysosphingolipid modulation of calcium ion signalling. Approximately 1 X 10^6 cortical neurons were cultured on rectangular L-polylysine-coated coverslips and loaded with lysocerebroside or lysosphingomyelin to a level of 150 ± 20 pmoles per mg protein. The neurons were returned to complete Ham's high glucose medium/DMEM (1:1, vol:vol) and infiltrated with 5 µM fura 2/AM (Molecular Probes, Eugene, OR). Fura 2 is a calcium chelator whose fluorescence absorbance shifts to shorter wavelength upon calcium ion binding is measurable in intact cells. A change in intraneuronal calcium ion concentration was monitored as a change in the fluorescence spectrum.
# The neurons were exposed to 10 µM glutamate agonist (for example, ibotenate) for 30 minutes at 37°C. The coverslips were then transferred to quartz cuvettes in medium containing 250 µM sulfinpyrazone to prevent fura 2/AM diffusion. Fluorescence ratios were recorded in a Perkin-Elmer LS-5 Fluorescence Spectrometer thermostatted at 37°C at excitation wavelengths of 340 and 380 nm, and emission measurement at 500 nm. Calcium ion signalling in agonist-stimulated neurons was 3.0 ± 0.2 arbitrary units for ibotenate-exposed neurons.
molecule,measurement,setting,value
"N[C@@H](CC(=O)O)C(=O)O [Aspartate, aspartate, reference compound]",fold induction at 100 µM,[1],2.7 ± 0.06
"N[C@@H](CCC(=O)O)C(=O)O [Glutamate, glutamate, reference compound]",fold induction at 100 µM,[1],3.3 ± 0.05
"NC(C(=O)O)c1cc(O)no1 (stereo not drawn) [Ibotenate, ibotenate, reference compound]",Ins-P-n,[1],3.00 ± 0.10^f
same,lysocerebroside content of neurons,[2],80 ± 5
same,lysosphingomyelin content of neurons,[2],52 ± 2
same,sphingosine content of neurons,[2],85 ± 3
same,Calcium ion signalling,[3],3.0 ± 0.2 arbitrary units
"CN[C@@H]1C[C@H]2O[C@@](C)([C@@H]1OC)n1c3ccccc3c3c4c(c5c6ccccc6n2c5c31)C(=O)NC4 [staurosporine, reference compound]","influence on the effects of sphingosine, lysocerebroside, or lysosphingomyelin on InsP3 production","[1]; brain neurons responsive to excitatory amino acids, protein kinase C inhibitor",does not influence
Lysosulphatide [reference compound],inhibitory effect on InsP3 signalling,[1]; chick cortical neurons,without inhibitory effect
